Laboratory results taken from patent US9133140B2, “Cycloalkylamne derivatives” (Daiichi Sankyo Company, Limited, priority 2008, dated 2015).
Structures can show the parent of a compound that is named as a salt. Where two headings read alike, the source gives them in different places.

Key:
human CaSR = molecular target: T1, human CaSR (Homo sapiens, UniProt P41180); test: Human CaSR activity measurement test (intracellular calcium in TT cells); assay type: cell-based; settings: [EC50 of test compound]/[EC50 of Compound A], intracellular calcium fluorescence
T1 construct: TT cells are cell lines that express human CaSR; endogenous in cells; host or cells: TT cells (human medullary thyroid carcinoma cell line)
T1 sequence (P41180 20-1078): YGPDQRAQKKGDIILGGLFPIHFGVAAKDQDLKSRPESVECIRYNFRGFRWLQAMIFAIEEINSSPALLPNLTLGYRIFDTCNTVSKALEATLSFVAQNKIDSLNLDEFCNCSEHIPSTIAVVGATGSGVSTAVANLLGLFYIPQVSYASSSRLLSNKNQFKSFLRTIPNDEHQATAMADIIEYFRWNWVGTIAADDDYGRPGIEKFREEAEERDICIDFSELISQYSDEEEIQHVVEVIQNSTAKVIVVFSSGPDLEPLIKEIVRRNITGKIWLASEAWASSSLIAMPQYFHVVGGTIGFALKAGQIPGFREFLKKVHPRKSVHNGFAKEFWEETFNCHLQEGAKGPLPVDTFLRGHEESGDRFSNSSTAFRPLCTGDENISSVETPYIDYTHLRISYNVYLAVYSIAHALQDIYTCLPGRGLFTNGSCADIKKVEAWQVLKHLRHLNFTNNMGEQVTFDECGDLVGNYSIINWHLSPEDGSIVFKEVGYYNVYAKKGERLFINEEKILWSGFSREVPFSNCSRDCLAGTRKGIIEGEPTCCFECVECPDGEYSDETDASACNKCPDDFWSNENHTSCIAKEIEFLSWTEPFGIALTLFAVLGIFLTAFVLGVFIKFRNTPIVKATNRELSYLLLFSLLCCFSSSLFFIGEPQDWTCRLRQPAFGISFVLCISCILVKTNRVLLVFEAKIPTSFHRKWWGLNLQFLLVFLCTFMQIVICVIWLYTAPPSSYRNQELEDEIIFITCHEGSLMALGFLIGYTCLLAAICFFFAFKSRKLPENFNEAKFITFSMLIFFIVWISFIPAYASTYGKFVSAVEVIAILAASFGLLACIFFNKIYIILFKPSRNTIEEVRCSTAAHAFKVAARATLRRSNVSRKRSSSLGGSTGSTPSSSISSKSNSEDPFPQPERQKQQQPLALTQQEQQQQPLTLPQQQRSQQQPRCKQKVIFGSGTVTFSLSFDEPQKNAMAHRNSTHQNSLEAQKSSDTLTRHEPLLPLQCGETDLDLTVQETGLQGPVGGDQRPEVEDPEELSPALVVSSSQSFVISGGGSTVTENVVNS
Protocol: It is reported that human medullary thyroid carcinoma cell lines TT cells are cell lines that express human CaSR, and when CaSR is activated by extracellular calcium ions or the like, intracellular calcium ion concentration increases (Endocrinology 137: 3842-3848, 1996). Accordingly, an activating action of the test compounds with respect to human CaSR was evaluated by using the change in intracellular calcium concentration of TT cells as an indicator. TT cells were inoculated onto a black well/clear bottom 96 well plate (poly-D-lysine coat: manufactured by BD biosciences), and were cultured for approximately 24 hours in a F-12 Nutrient Mixture (Kaighn's modification) culture media containing 10% calf serum and 0.5% antibiotic antimycotic. […] Then, the plate was allowed to stand for 1 hour at 37° C. Subsequently, the above-mentioned plate was placed onto FlexStation (manufactured by Molecular Device) or FlexStation 3 (manufactured by Molecular Device), and fluorescence intensity before and after treatment with the test compound dissolved in a buffer for measurement (126 mM NaCl, 4 mM KCl, 1 mM MgCl2, 20 mM HEPES (pH 7.4), 5.6 mM glucose, 2 mM CaCl2) was measured. […] Nagano, Pharmacol. […] WO 1996/12697) as a comparative compound, by conducting a similar procedure. From the following equation, the human CaSR activity of each of the test compounds was calculated as the relative activity with respect to Compound A. Relative activity with respect to Compound A=[EC50 of test compound]/[EC50 of Compound A]

[1] = system: calcium ion concentration in the blood; test: Measurement test for concentration of parathyroid hormone and calcium ion in rat blood; assay type: in vivo; settings: read-out: reduction of calcium concentration in the blood
Protocol: Three male SD rats (manufactured by Japan SLC, Inc.) were orally administered with the test compound, and effects on the concentration of parathyroid hormone (PTH) in the blood and concentration of the calcium ion in the blood were studied.
The test compound was administered by dissolving or suspending it in a 0.5% methyl cellulose 400 (MC) solution or 0.5% MC solution containing 10% of ethanol. (In addition, Compound A used in Test Example 1 was administered as a MC suspension by dosage of 30 mg/kg, and was studied as a comparative example.) Blood was collected from the jugular vein under anesthesia with halothane or isoflurane, before administration of the test compound, and 2, 4, 6 or 8 and 24 hours after administration. Calcium ion concentration in the blood was measured using cartridge EG7+(manufactured by Fuso Chemical Co., Ltd.) and i-STAT 300F (manufactured by Fuso Chemical Co., Ltd.). In addition, plasma intact PTH concentration was measured using Rat intact PTH ELISA kit (manufactured by Immutopics).
The transition of calcium ion concentration in the blood over time from before administration to 24 hours after administration of each of the test compounds was plotted, and the decrease in calcium ion concentration in the blood from the value before administration was calculated as an area value.

[2] = male SD rats, oral, 10 mg/kg, 4 hours after administration
[3] = male SD rats, oral, 4 hours after administration

| Relative activity with respect to Compound A (human CaSR) | SMILES | inhibition in vivo at 10 mg/kg [1, 2] [%] | inhibition in vivo at 0.3 mg/kg [1, 3] [%] | inhibition in vivo at 10 mg/kg ([1]; po, 4 h) [%] |
| --- | --- | --- | --- | --- |
| 0.60 | C[C@@H](N[C@H]1CC[C@@H](c2ccc(OC(C)(C)C(=O)O)cc2)C1)c1cccc2ccccc12 [Example 11, 2-Methyl-2-{4-[(1R,3S)-3-{[(1R)-1-(naphthalen-1-yl)ethyl]amino}cyclopentyl]phenoxy}propanoic acid hydrochloride] | ≥ 30 |  |  |
| 0.38 | C[C@@H](N[C@H]1CC[C@@H](c2ccc(OC(C)(C)C(=O)O)c(F)c2)C1)c1cccc2ccccc12 [Example 15, 2-{2-Fluoro-4-[(1R,3S)-3-{[(1R)-1-(naphthalen-1-yl)ethyl]amino}cyclopentyl]phenoxy}-2-methylpropanoic acid hydrochloride] | ≥ 30 |  |  |
| 0.30 | C[C@@H](N[C@H]1CC[C@@H](c2ccc(OCC(=O)O)cc2)C1)c1ccc(F)c2ccccc12 [Example 17, {4-[(1R,3S)-3-{[(1R)-1-(4-Fluoronaphthalen-1-yl)ethyl]amino}cyclopentyl]phenoxy}acetic acid] | ≥ 30 | ≥ 20 |  |
| 0.38 | C[C@@H](NC1CC[C@@H](c2ccc(OCC(=O)O)cc2)C1)c1cccc2cc(F)ccc12 (stereo partly drawn) [Example 21, {4-[(1R)-3-{[(1R)-1-(6-Fluoronaphthalen-1-yl)ethyl]amino}cyclopentyl]phenoxy}acetic acid] | ≥ 30 |  |  |
| 0.30 | C[C@@H](N[C@H]1CC[C@@H](c2cccc(CC(=O)O)c2)C1)c1ccc(F)c2ccccc12 [Example 24, {3-[(1R,3S)-3-{[(1R)-1-(4-Fluoronaphthalen-1-yl)ethyl]amino}cyclopentyl]phenyl}acetic acid hydrochloride] | ≥ 30 | ≥ 20 |  |
| 0.34 | C[C@@H](N[C@H]1CC[C@@H](c2ccc(CC(=O)O)cc2)C1)c1ccc(F)c2ccccc12 [Example 25, {4-[(1R,3S)-3-{[(1R)-1-(4-Fluoronaphthalen-1-yl)ethyl]amino}cyclopentyl]phenyl}acetic acid hydrochloride] | ≥ 30 | ≥ 20 |  |
| 0.59 | C[C@@H](N[C@H]1CC[C@@H](c2ccc(CCC(=O)O)cc2)C1)c1ccc(F)c2ccccc12 [Example 27, 3-{4-[(1R,3S)-3-{[(1R)-1-(4-Fluoronaphthalen-1-yl)ethyl]amino}cyclopentyl]phenyl}propanoic acid hydrochloride] |  | ≥ 20 |  |
| 0.17 | C[C@@H](N[C@H]1CC[C@H](c2ccc(OCC(=O)O)cc2)C1)c1ccc(F)c2ccccc12 [Example 28, {4-[(1S,3S)-3-{[(1R)-1-(4-Fluoronaphthalen-1-yl)ethyl]amino}cyclopentyl]phenoxy}acetic acid] |  | ≥ 20 |  |
| 0.31 | C[C@@H](N[C@H]1CC[C@H](c2ccc(CCC(=O)O)cc2)C1)c1ccc(F)c2ccccc12 [Example 30, 3-{4-[(1S,3S)-3-{[(1R)-1-(4-Fluoronaphthalen-1-yl)ethyl]amino}cyclopentyl]phenyl}propanoic acid hydrochloride] |  | ≥ 20 |  |
| 0.36 | C[C@@H](N[C@H]1CC[C@@H](c2ccc(OC(C)(C)C(=O)O)cc2)C1)c1ccc(F)c2ccccc12 [Example 31, 2-{4-[(1R,3S)-3-{[(1R)-1-(4-Fluoronaphthalen-1-yl)ethyl]amino}cyclopentyl]phenoxy}-2-methylpropanoic acid hydrochloride] | ≥ 30 | ≥ 20 |  |
| 0.15 | C[C@@H](N[C@H]1CC[C@@H](c2ccc(SCC(=O)O)cc2)C1)c1cccc2ccccc12 [Example 36, ({4-[(1R,3S)-3-{[(1R)-1-(Naphthalen-1-yl)ethyl]amino}cyclopentyl]phenyl}thio)acetic acid hydrochloride] | ≥ 30 |  |  |

| SMILES | Relative activity with respect to Compound A (human CaSR) | inhibition in vivo at 10 mg/kg [1, 2] [%] | inhibition in vivo at 0.3 mg/kg [1, 3] [%] | inhibition in vivo at 10 mg/kg ([1]; po, 4 h) [%] |
| --- | --- | --- | --- | --- |
| C[C@@H](N[C@H]1CC[C@@H](c2ccc(NCC(=O)O)cc2)C1)c1cccc2ccccc12 [Example 33, N-{4-[(1R,3S)-3-{[(1R)-1-(Naphthalen-1-yl)ethyl]amino}cyclopentyl]phenyl}glycine 0.4 hydrochloride] | 0.23 |  |  | ≥ 30 |
| C[C@@H](N[C@H]1CC[C@@H](c2ccc(NCCC(=O)O)cc2)C1)c1cccc2ccccc12 [Example 34, N-{4-[(1R,3S)-3-{[(1R)-1-(Naphthalen-1-yl)ethyl]amino}cyclopentyl]phenyl}-β-alanine 0.5 hydrochloride] | 0.26 |  |  | ≥ 30 |
